Test results reported in patent US20150157783A1, “METHOD TO SELECTIVELY BIND AND EXTRACT PHOSPHATE” (priority 2013, published 2015).

How the values were obtained:
[1] = UV-Vis titration, 1:1 binding of dihydrogen phosphate (Bu4N+ salt) in aqueous DMSO; details: for Binding constant (1:1) to H2PO4^−: 25% aqueous DMSO (v/v)
Experimental: (§1) Their interactions with anion salts were investigated in various aqueous dimethylsulfoxide (DMSO) mixtures.
(§2) Dilute non-aggregating solutions of a receptor S were titrated with a given anion X^− via a solution of its tetrabutylammonium salt and were monitored by UV-VIS spectrometery. UV absorption spectra (250-600 nm) were recorded three times for each solution and average values for each point were used; all of the spectra were background corrected by subtracting the absorption of the solvent. The wavelength with the maximum change in the concentration corrected absorption (Acor=A·C0/C, where C and C0 are the current and the initial receptor concentrations) was determined and then used for further analysis. Absorptions were plotted versus anion concentrations and the binding constants were determined by an iterative non-linear least squares curve fitting routine implemented in Excel using the equations below. Observed and calculated absorptions are given for each titration in the corresponding Tables and Figures.
(§3) K: binding constant for 1:1 complex formation
(§4) [S]:free receptor concentration
(§5) [S]0:total receptor concentration
(§6) [SX]:bound receptor concentration
(§7) [X]0:total anion concentration
(§8) A: absorption of the solution
(§9) A0:absorption of the initial solution (no anion added)
(§10) Amax:absorption of the solution if all the receptor was bound (infinite excess of anion at the initial receptor concentration)
(§11) In cases where there is a large excess of the anion, [X] about equals [X]0, and the plot of ΔAcor/[X] versus ΔAcor gives a straight line where the slope of the linear least squares fit of the data is the binding constant (K) and the intercept is K·ΔAmax:
(§12) with ΔAcor=(A−A0)·C0/C, where C and C0 are the current and the initial receptor concentrations; ΔAmax=Amax−A0.

[2] = UV-Vis titration, 1:1 binding of acetate (Bu4N+ salt) in aqueous DMSO; details: for Binding constant (1:1) to OAc^−: 25% aqueous DMSO (v/v)
Experimental: as §1, §2, §3, §4, §5, §6, §7, §8, §9, §10, §11, §12

[3] = UV-Vis titration, 1:1 binding of chloride (Bu4N+ salt) in aqueous DMSO; details: 25% aqueous DMSO (v/v)
Experimental: as §1, §2, §3, §4, §5, §6, §7, §8
A0:absorption of the initial solution (no anion added) […]

[4] = Solubility of receptor (qualitative)

SMILES	K1-bis/K1-mono for dihydrogen phosphate ([1]; 25% aqueous DMSO)	Binding constant (1:1) to H2PO4^− [1]	Binding constant (1:1) to OAc^− [2]	Binding constant K of 1:1 adduct with H2PO4^− ([1]; 0.5% DMSO-H2O mixture, 0-1 equivalents of anion)	association constant relative to the statistical value (36 M^−1) expected for one-arm binding of H2PO4^− ([1]; 25% aqueous DMSO)	acetate binding strength relative to 1-mono ([2]; 25% aqueous DMSO)	Binding constant (1:1) to Cl^− [3]	solubility [4]
O=[N+]([O-])c1ccc(NC(=S)Nc2ccccc2-c2cccc(-c3ccccc3NC(=S)Nc3ccc([N+](=O)[O-])cc3)c2)cc1 [1-bis, 1,3-bis[2-(3-(4—Nitrophenyl)thioureido)phenyl]benzene]	about 2	28 M⁻¹	–	–	–	–	–	–
O=[N+]([O-])c1ccc(NC(=S)Nc2ccccc2)cc1 [1-mono, 1-(4—Nitrophenyl)-3-phenylthiourea]	–	12 M⁻¹	12 M⁻¹	–	–	–	–	–
O=[N+]([O-])c1ccc(NC(=S)Nc2ccccc2-c2cc(-c3ccccc3NC(=S)Nc3ccc([N+](=O)[O-])cc3)cc(-c3ccccc3NC(=S)Nc3ccc([N+](=O)[O-])cc3)c2)cc1 [1-tris, 1,3,5-tris[2-(3-(4—Nitrophenyl)thioureido)phenyl]benzene]	–	4000 M⁻¹	35 M⁻¹	> 5e+06 M⁻¹	more than 100 fold	three times more strongly	1 M⁻¹	low solubility
FC(F)(F)c1cc(NC(=S)Nc2ccccc2-c2cc(-c3ccccc3NC(=S)Nc3cc(C(F)(F)F)cc(C(F)(F)F)c3)cc(-c3ccccc3NC(=S)Nc3cc(C(F)(F)F)cc(C(F)(F)F)c3)c2)cc(C(F)(F)F)c1 [2-tris, 1,3,5-tris[2-(3-(3,5-Trifluoromethylphenyl)thioureido)phenyl]benzene]	–	10000 M⁻¹	–	–	–	–	–	more soluble
